Reference: PMC10815991, “Membrane-Bound Redox Enzyme Cytochrome bd-I Promotes Carbon Monoxide-Resistant Escherichia coli Growth and Respiration” (International Journal of Molecular Sciences, 2024)
Where two headings read alike, the source gives them in different places.

Assays:
[1] = biological target: T1, cytochrome bd-II (bd-II-only E. coli cells) (Escherichia coli, UniProt P26459); assay: O2 consumption (aerobic respiration) of bd-II-only E. coli cell suspensions; assay type: cell-based; conditions: estimated from IC50 values at different [O2], assuming competitive inhibition; Km(O2) 2 µM
T1 construct: the oxidases were in vivo conditions, i.e., integrated into native bacterial membranes; endogenous in cells; host or cells: E. coli TBE026 (MG1655 ΔcydB nuoB cyoB::kan); whole cells (A2) or membranes isolated from them (A6)
T1 sequence (P26459 whole entry): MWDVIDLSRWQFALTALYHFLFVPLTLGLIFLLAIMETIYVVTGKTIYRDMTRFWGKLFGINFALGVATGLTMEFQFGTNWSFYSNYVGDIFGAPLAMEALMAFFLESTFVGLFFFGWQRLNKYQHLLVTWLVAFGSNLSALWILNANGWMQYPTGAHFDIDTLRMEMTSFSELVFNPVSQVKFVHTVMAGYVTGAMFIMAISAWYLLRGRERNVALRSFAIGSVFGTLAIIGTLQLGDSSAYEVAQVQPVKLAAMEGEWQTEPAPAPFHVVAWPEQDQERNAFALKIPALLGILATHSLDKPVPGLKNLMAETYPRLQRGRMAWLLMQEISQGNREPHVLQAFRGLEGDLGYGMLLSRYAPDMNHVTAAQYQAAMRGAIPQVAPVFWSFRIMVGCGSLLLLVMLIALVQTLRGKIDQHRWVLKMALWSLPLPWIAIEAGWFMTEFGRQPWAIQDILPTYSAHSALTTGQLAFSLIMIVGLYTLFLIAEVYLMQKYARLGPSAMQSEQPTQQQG
T1 sequence (P26458 whole entry partner): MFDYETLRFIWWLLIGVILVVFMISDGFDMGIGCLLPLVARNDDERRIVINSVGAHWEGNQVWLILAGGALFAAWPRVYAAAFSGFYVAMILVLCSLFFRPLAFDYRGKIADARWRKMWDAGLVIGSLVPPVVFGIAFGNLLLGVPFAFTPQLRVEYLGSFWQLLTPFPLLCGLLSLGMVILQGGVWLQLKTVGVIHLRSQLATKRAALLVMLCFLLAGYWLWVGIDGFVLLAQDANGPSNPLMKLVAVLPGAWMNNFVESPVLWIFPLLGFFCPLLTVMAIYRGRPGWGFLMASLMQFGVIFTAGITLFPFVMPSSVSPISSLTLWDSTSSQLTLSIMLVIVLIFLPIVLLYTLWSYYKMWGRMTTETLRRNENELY
T1 sequence (P24244 whole entry partner): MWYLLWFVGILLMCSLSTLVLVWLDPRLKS
Experimental: (§1) The CO and N2 gases were purchased from Linde (Danbury, CT, USA) and Air Liquide (Air Liquide Italia Spa, Milano, Italy), respectively. Other chemicals were purchased from Merck KGaA (Darmstadt, Germany). A stock solution of CO or N2 was prepared by equilibrating degassed water with the pure gas at 1 atm and room temperature, yielding 1 mM CO and 0.7 mM N2 in solution. E. coli respiratory mutant strains TBE025 (MG1655 ΔcydB nuoB appB::kan), TBE026 (MG1655 ΔcydB nuoB cyoB::kan), and TBE037 (MG1655 ΔappB nuoB cyoB::kan), which respectively express cytochrome bo3, cytochrome bd-II, or cytochrome bd-I as the sole terminal oxidase, were used. E. coli cultures were grown in Luria–Bertani (LB) medium supplemented with 30 μg/mL kanamycin, at 37 °C and 200 rpm. In the case of growth studies, after inoculation at an OD600 of 0.15 ± 0.03, the cells were grown in 50 mL rubber-stoppered flasks in 16 mL of air-equilibrated LB at 37 °C for 60 min; when OD600 reached 0.4 ± 0.08, they were bubbled for 30 s with either CO (pure gas at 1 atm and room temperature) or N2 (pure gas at 1 atm and room temperature) as a control to yield a final concentration of both gases of ~20%. The gas percentage was assessed by taking into account the different O2 concentrations, present in equal volumes of LB equilibrated with air or flushed with CO/N2 for 30 s, and calculated according to the following equation: Gas % = ([O2] air equilibrated − [O2] gas flushed)/[O2] air equilibrated × 100. [O2] air equilibrated and [O2] gas flushed are the O2 concentration values measured in the degassed chamber of a high-resolution respirometer (Oxygraph-2k, Oroboros Instruments GmbH, Innsbruck, Austria) of non-fluxed and fluxed E. coli cultures with CO or N2, respectively. The growth of the E. coli cultures was then monitored via a standard method using optical density measurements in an Eppendorf BioSpectrometer basic at 600 nm every 30 min. When the OD600 was above 1, cultures were diluted before reading.
(§2) Oxygraphic measurements were performed at 25 °C in 50 mM K/phosphate pH 7.0, using a high-resolution respirometer (Oxygraph-2k, Oroboros Instruments GmbH, Innsbruck, Austria) equipped with two 1.5-mL chambers. The O2 consumption of E. coli cells was followed with endogenous reductants. In the case of isolated membranes, O2 consumption was measured in the presence of 2.5 mM dithiothreitol (DTT) and 2.5 μM 2,3-dimethoxy-5-methyl-6-(3-methyl-2-butenyl)-1,4-benzoquinone (Q1), an artificial reducing couple specific for quinol oxidases. The catalytic O2-consuming activity was obtained by subtracting the non-enzymatic O2 consumption (Q1/DTT autoxidation in the absence of the membranes) from the O2 consumption rate measured after the addition of membranes.
(§3) UV–visible absorption spectra were recorded to estimate the amount of each terminal oxidase present in cell suspensions. For this purpose, an Agilent Cary 60 UV-Vis or a Varian Cary 300 Bio UV-Visible spectrophotometer was used.
(§4) Data analysis was carried out using software packages Origin v7.0 (OriginLab Corporation, Northampton, MA, USA) and GIM (Scientific Graphic Interactive Management System developed by A.L. Drachev in Lomonosov Moscow State University). The percentage inhibition of O2 consumption of cell suspensions (i%) was calculated using the equation i% = ((V0 − V0,i)/V0)·100, where V0 and V0,i are the initial rates in the absence and in the presence of the inhibitor (CO), respectively. The apparent IC50 values of cytochromes bd-II and bo3 for CO were estimated by plotting i% as a function of CO concentration added ([CO]0). The data were fitted to the standard hyperbolic equation i% = imax%·[CO]0/(IC50 + [CO]0) using a built-in approximation function (‘Hyperbola function’) in ‘Advanced Fitting tool’ in the Origin program. The imax% parameter is a theoretical maximum percent inhibition. […]

[2] = biological target: T2, cytochrome bo3 (bo3-only E. coli cells) (Escherichia coli, UniProt P0ABI8); design: method as in PMID 38188931; conditions: [O2] = 150 μM; cited from earlier work
T2 construct: the oxidases were in vivo conditions, i.e., integrated into native bacterial membranes; endogenous in cells; host or cells: E. coli TBE025 (MG1655 ΔcydB nuoB appB::kan); whole cells (A3) or membranes isolated from them (A7)
T2 sequence (P0ABI8 whole entry): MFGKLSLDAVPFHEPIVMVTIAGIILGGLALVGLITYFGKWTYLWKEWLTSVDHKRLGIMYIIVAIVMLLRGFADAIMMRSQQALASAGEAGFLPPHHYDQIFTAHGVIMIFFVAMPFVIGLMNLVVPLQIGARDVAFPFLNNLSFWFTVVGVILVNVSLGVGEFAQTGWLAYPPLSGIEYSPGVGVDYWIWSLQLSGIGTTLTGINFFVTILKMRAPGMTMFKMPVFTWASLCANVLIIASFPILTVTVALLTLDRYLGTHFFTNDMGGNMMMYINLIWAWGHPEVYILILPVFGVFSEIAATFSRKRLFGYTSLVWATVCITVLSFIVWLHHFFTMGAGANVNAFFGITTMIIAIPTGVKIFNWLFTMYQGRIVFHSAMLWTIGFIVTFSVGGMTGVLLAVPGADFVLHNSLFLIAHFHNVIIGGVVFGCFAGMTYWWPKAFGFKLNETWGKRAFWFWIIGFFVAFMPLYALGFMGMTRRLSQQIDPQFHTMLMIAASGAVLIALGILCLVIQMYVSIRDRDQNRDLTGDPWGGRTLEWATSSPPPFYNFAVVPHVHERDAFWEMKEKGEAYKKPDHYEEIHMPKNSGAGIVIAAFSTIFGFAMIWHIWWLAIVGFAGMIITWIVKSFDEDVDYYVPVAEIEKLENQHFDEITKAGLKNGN
T2 sequence (P0ABJ1 25-315 partner): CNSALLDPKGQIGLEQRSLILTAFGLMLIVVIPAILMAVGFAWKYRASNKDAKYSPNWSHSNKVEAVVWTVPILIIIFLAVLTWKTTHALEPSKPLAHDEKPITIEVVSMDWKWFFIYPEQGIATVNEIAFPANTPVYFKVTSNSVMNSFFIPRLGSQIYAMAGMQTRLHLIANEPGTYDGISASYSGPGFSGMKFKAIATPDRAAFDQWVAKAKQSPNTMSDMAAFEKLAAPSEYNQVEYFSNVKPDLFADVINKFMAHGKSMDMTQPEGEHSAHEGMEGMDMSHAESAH
T2 sequence (P0ABJ3 whole entry partner): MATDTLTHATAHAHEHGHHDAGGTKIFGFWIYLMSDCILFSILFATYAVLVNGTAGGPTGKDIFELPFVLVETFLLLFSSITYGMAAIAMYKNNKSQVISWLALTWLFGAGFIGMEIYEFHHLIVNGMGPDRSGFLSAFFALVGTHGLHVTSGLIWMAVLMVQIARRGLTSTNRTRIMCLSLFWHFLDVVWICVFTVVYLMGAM
T2 sequence (P0ABJ6 whole entry partner): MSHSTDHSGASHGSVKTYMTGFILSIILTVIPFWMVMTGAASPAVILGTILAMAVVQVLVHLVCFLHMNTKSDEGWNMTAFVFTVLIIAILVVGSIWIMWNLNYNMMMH

[3] = biological target: T3, cytochrome bo3 (bo3-only E. coli membranes) (Escherichia coli, UniProt P0ABI8); assay: O2 reductase activity of isolated bo3-containing membranes; assay type: biochemical
T3 construct: the oxidases were in vivo conditions, i.e., integrated into native bacterial membranes; endogenous in cells; host or cells: E. coli TBE025 (MG1655 ΔcydB nuoB appB::kan); whole cells (A3) or membranes isolated from them (A7)
T3 sequence (P0ABI8 whole entry): as the sequence (P0ABI8 whole entry) above
T3 sequence (P0ABJ1 25-315 partner): as the sequence (P0ABJ1 25-315 partner) above
T3 sequence (P0ABJ3 whole entry partner): as the sequence (P0ABJ3 whole entry partner) above
T3 sequence (P0ABJ6 whole entry partner): as the sequence (P0ABJ6 whole entry partner) above
Experimental: To isolate membranes from E. coli respiratory mutants expressing only one terminal quinol oxidase (cytochrome bd-I or cytochrome bd-II or cytochrome bo3), cell cultures were grown in LB medium until an OD600 of about 2 was reached. The cells were then pelleted by centrifugation at 10,000 rpm for 10 min and washed twice in 20 mM TRIS pH 8.3 containing 0.5 mM EDTA and 5 mM MgSO4. The cells were resuspended in the same buffer containing 1 mg/mL lysozyme and incubated for two hours on ice. A spatula tip of DNAse and RNase was then added, and the cells were lysed by sonication. Cell debris was removed by centrifugation at 15,000 rpm for 10 min. Membrane fractions were collected and stored at −80 °C. The protein content was determined using the Bradford method, using the Bradford reagent (Sigma) with bovine serum albumin as standard.
as §2, with “The catalytic O2-consuming activity was obtained by subtracting the non-enzymatic O2 consumption (Q1/DTT autoxidation in the absence of the membranes) from the O2 consumption rate measured after the addition of membranes.” left out

[4] = test system: E. coli mutant strain expressing cytochrome bo3 as the sole terminal oxidase; assay: Cell growth (OD600) of bo3-only strain in presence of CO; assay type: cell-based, Escherichia coli; conditions: ~20% CO added at 60 min after start of growth in air, vs ~20% N2 control
Experimental: as §1, with “E. coli cultures were grown in Luria–Bertani (LB) medium supplemented with 30 μg/mL kanamycin, at 37 °C and 200 rpm. In the case of growth studies, after inoculation at an OD600 of 0.15 ± 0.03, the cells were grown in 50 mL rubber-stoppered flasks in 16 mL of air-equilibrated LB at 37 °C for 60 min; when OD600 reached 0.4 ± 0.08, they were bubbled for 30 s with either CO (pure gas at 1 atm and room temperature) or N2 (pure gas at 1 atm and room temperature) as a control to yield a final concentration of both gases of ~20%.” left out, “When the OD600 was above 1, cultures were diluted before reading.” left out

[5] = test system: terminal oxidase operons cyoABCDE, cydABX, appCBX; design: method as in PMID 26907100; conditions: wild-type E. coli exposed to CO gas, cited from earlier work
[6] = test system: E. coli wild-type strain MG1655 cells; assay: O2 consumption of wild-type E. coli cell suspensions at high and low OD; assay type: cell-based, Escherichia coli
[7] = biological target: T2, cytochrome bo3 (bo3-only E. coli cells); assay: O2 consumption (aerobic respiration) of bo3-only E. coli cell suspensions; assay type: cell-based; conditions: for IC50: read-out: apparent IC50
Experimental: as §1, §2, §3, §4

[C-]#[O+] [CO, Carbon monoxide]
Ki [1]: 2.5 ± 0.2 µM | IC50 [2]: 183 ± 13.5 µM | CO inhibition of O2 reductase activity of membranes [3]: effectively inhibits | effect on cell growth [4]: severely impaired | decrease in the expression of the cyoABCDE operon ([5]; aerobic conditions): 5- to 10 fold | increase in the expression of the cydABX operon ([5]; aerobic conditions): 4 fold | changes in the expression of the appCBX operon [5]: slight | sensitivity of O2 consumption to CO ([6]; wild-type cells harvested at high OD600 (prevalent expression of a bd-type oxidase)): low | sensitivity of O2 consumption to CO ([6]; wild-type cells harvested at low OD600 (prevalent expression of cytochrome bo3)): high | inhibition of O2 consumption ([7]; 96.3 μM CO added at [O2] = 100 μM, bo3-only cells): 44.3 ± 1.5% | maximum inhibition percentage of respiration ([7]; 196.3 μM CO added at [O2] = 50 μM): 85.6 ± 3.7% | maximum inhibition percentage of respiration ([7]; 196.3 μM CO added at [O2] = 100 μM): 65.3 ± 17.2% | maximum inhibition percentage of respiration ([7]; 196.3 μM CO added at [O2] = 200 μM): 39.7 ± 11.5% | IC50 ([7]; CO added at [O2] = 50 μM): 66.5 ± 10 µM | IC50 ([7]; CO added at [O2] = 100 μM): 131 ± 14 µM | IC50 ([7]; CO added at [O2] = 200 μM): 330 ± 19.6 µM | Ki ([7]; estimated from IC50 values at different [O2], assuming competitive inhibition, Km(O2) 6 µM): 8.4 ± 0.7 µM
